# Results taken from patent publication US7288556B2, “Antiproliferative 1,2,3-thiadiazole compounds” (QLT Inc., priority 2000, dated 2007).
# Marks after values point to notes of the source that are not given here.
# Key:
# IEC-18-13 Epithelium = experiment: Matrigel invasion assay, IEC-18-13; type: cell-based; details: 10 μm, 24 h, control 34.9
# Protocol: (§1) c. Invasion Assays: Invasion of cells into surrounding tissue is a hallmark property of tissue remodeling. Tissue remodeling occurs during most pathological progression, including tumor progression, angiogenesis and during normal processes such as wound healing. The following invasion assays were performed using Biocoat® Cell Environments™ Matrigel Invasion Chamber 24-Well Plate Size (Becton Dickinson). The invasion chambers can be used to assess the ability of a cell to traverse an extracellular matrix under a variety of conditions. The chambers consist of a 24 well plate and […] that can be suspended in each well and act as an upper chamber. Cells place in the upper chamber insert must invade through a matrix in order to enter the lower chamber.
# (§2) Cells were pre-labeled with ^3H-thymidine overnight. Typically, 5×10^5 cells were cultured overnight in 5 mls of serum-containing media spiked with 200 μl of thymidine stock solution. Cells were scraped off of the flask substratum and gently pipetted up and down to achieve single cell suspension in the medium. […]
# (§3) After an incubation period of 24 h, media was carefully removed from the upper chamber insert and saved for scintillation counting. […] The relative amount of cell invasion was calculated by adding counts from the filters and lower chambers and dividing this sum by the total counts added initially to the upper chambers. […]
# IEC-18 Epithelium = experiment: Matrigel invasion assay, IEC-18; type: cell-based; details: 10 μm, 24 h, control 16.8
# Protocol: as §1, §2, §3
# Lewis Lung cell line = details: cells inoculated subcutaneously in rear flank of mice, compound i.p. daily
# Protocol: Anti-tumour efficacy and dose response in allograft and xenograft models. Cell lines were selected from an in vitro assay based on ILK expression, and growth curves characterized in vivo. Preliminary tests were performed with the Lewis Lung cell line in a murine allograft tumor model. In parallel, human xenograft tumor lines were characterized.
# Cells were inoculated subcutaneously in the rear flank of mice, and the test compound was administered i.p. daily. Tumors were measured and the size calculated, with the objective being a decrease in tumor growth compared to the controls.
# HUVEC [1] = experiment: HUVEC endothelial proliferation in response to test compounds (MTS); type: cell-based
# Protocol: (§4) Endothelial cell cultures: Cell lines used include HUVEC, EJG and MS1 and are routinely passaged 1 to 2 times weekly. Endothelial growth media (EGM) consists of Endothelial Base Media plus all supplements (Clonetics). For testing of compounds, endothelial cells were plated on 1% gelatin-coated plates. Prior to plating, gelatin solution was added to the plates for at least 10 minutes before plating, but excess solution removed immediately before adding cells. Sterile gelatin solution consists of 1% gelatin in dH2O that has been autoclaved. Endothelial cells form a characteristic cobblestone monolayer upon confluency. Typically, a T-75 plate contains 1 million microvascular cells upon confluency.
# a. HUVEC Endothelial Proliferation in Response to Test compounds: HUVEC were cultured in 96-well plates and treated with a dilution series of test compounds for potential angiogenesis-related effects.
# Day 0—Endothelium are plated at 5000 cells/well and at 10,000 cells/well.
# Day1—Treatments are added in EGM culture medium in an appropriate dilution series (n=6 or 12). Controls included EGM alone, serum free medium (SFM), and EGM plus 0.5% DMSO.
# Day 1-2, MTS/PMS solutions were added and plates read at 4 and 24 h after treatment.
# [2] = test system: chick chorioallantoic membrane; experiment: Chick chorioallantoic membrane (CAM) developmental angiogenesis assay; type: in vivo, chicken
# Protocol: e. Chick chorioallantoic membrane assay (CAM assay): was performed on fertilized chicken eggs and used as a test for angiogenesis inhibition.
# Approximately 4 dozen fertilized eggs were sprayed with 70% ETOH and placed in a 180 egg incubator (GQF Sportsman incubator). The eggs were incubated “rounded-side down” and were fully rotated along the vertical axis every 30 minutes at 37° C. under 90% relative humidity.
# After 4 days, the eggs were placed upside down (round side up) for 5-10 minutes, before a round hole approximately 3 centimeters in diameter was created above the pointed end or “air hole” of the egg using sterile blunt-ended forceps (“deshelling”). The inner membrane was also removed, and the embryo was visible through this opening. A small portion of the outer membrane was then carefully removed using fine-tipped forceps in order to expose the CAM. Sterile Parafilm was placed over the de-shelled opening to create an airtight seal. The eggs were returned to the incubator (with no rotation) for 2 days.
# Viable eggs were then treated with control and inhibitor compounds. Gelfoam™ gelatin sterile sponge (Upjohn) or 1-2 mm discs of methylcellulose saturated with physiological saline, buffer or an appropriate dilution of the compounds under investigation. The Gelfoam™ fragments of methylcellulose discs were added directly to the surface of the developing CAM. Care was taken not to add the treatment directly over a large vessel. The shells were marked in 3 places to aid in stereotactic localization of the treatment sponge or disc. An average of 6 eggs were included for each experimental condition. The treated eggs were returned to the incubator for 2 days.
# The eggs were then assessed for blood vessel growth inhibition. Photomicrographs for records and visual examination were made using a Nikon dissecting microscope with an attached Nikon 35-mm camera body.
# HUVEC [3] = experiment: 3H-Thymidine incorporation proliferation assay; type: cell-based; details: 10 μm
# Protocol: as §4
# b. Thymidine incorporation proliferation assay: Cells were plated out and grown overnight. The next day the test compound or controls were added to the plates, along with diluted ^3H-thymidine added to a final concentration of 0.1 μCi/well, and the plates were incubated. After 24 h, the plates were spun down 1000 g for 10 min (for non-adherent cells) before removing the PBS. A volume of 120 μl of the scintillant fluid was added to each of the wells, and the plate was read.
# [4] = HUVEC in log phase growth, 5 μm
# [5] = HUVEC in log phase growth, 10 μm
# [6] = HUVEC in log phase growth, 20 μm
compound,measurement,setting,value
"NC(=O)c1nnsc1Nc1ccccc1 [KP-15807, 5-Phenylamino-[1,2,3]thiadiazole-4-carboxylicacid amide]",% Cell Invasion,IEC-18-13 Epithelium,8%
same,% Cell Invasion,IEC-18 Epithelium,9%
same,tumor growth compared to control,Lewis Lung cell line,succeeded in reducing tumor growth compared to control
same,MTS Relative Absorbance 4 h,HUVEC [1]; [4],1.26 +/− 0.17
same,MTS Relative Absorbance 24 h,HUVEC [1]; [4],1.22 +/− 0.09
same,MTS Relative Absorbance 4 h,HUVEC [1]; [5],1.31 +/− 0.09
same,MTS Relative Absorbance 24 h,HUVEC [1]; [5],1.24 +/− 0.04
same,MTS Relative Absorbance 4 h,HUVEC [1]; [6],1.25 +/− 0.03
same,MTS Relative Absorbance 24 h,HUVEC [1]; [6],1.21 +/− 0.05
same,MTS Relative Absorbance 4 h,"HUVEC [1]; HUVEC post-confluent, 5 μm",2.06 +/− 0.20
same,MTS Relative Absorbance 24 h,"HUVEC [1]; HUVEC post-confluent, 5 μm",1.55 +/− 0.17
same,MTS Relative Absorbance 4 h,"HUVEC [1]; HUVEC post-confluent, 10 μm",2.30 +/− 0.05
same,MTS Relative Absorbance 24 h,"HUVEC [1]; HUVEC post-confluent, 10 μm",1.62 +/− 0.12
same,MTS Relative Absorbance 4 h,"HUVEC [1]; HUVEC post-confluent, 20 μm",2.52 +/− 0.05
same,MTS Relative Absorbance 24 h,"HUVEC [1]; HUVEC post-confluent, 20 μm",1.71 +/− 0.02
same,% Inhibition,[2]; 5 μm,60%
same,% Inhibition,[2]; 10 μm,75%
same,% Inhibition,[2]; 20 μm,85%
same,3H-Thymidine incorporation at 24 h,HUVEC [3]; HUVEC in log phase growth,746 +/− 200
same,3H-Thymidine incorporation at 48 h,HUVEC [3]; HUVEC in log phase growth,1251 +/− 117
same,3H-Thymidine incorporation at 24 h,HUVEC [3]; HUVEC post-confluent,571 +/− 86
same,3H-Thymidine incorporation at 48 h,HUVEC [3]; HUVEC post-confluent,452 +/− 71*
same,melting point,,195 to 197 °C
